Like-named read-outs stand apart in the source and are kept apart here.
Target: T1, F508delCFTR (Homo sapiens, UniProt P13569, DEL508-508)
T1 construct: expressed in transfected cells; host or cells: CFBE41o- (human lung derived epithelial cell line), doxycycline-inducible expression
Assay: Cell Surface Expression-Horse Radish Peroxidase (CSE-HRP) assay
Assay type: cell-based
Settings: CFBE41o-F508delCFTR-HRP cells; for Maximum % activity (with co-corrector): with co-corrector (2 μM); for Maximum % activity (with co-corrector) / Maximum % activity (without co-corrector): normalized to on-plate positive control, highest concentration 20 μM
Summary of the method: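 Surface F508delCFTR-HRP was read by luminol luminescence after 18–24 h compound exposure at 33 °C, without or with 2 μM co-corrector. Doses were eight 3-fold steps from 20 μM, in doxycycline-induced (0.5 μg/mL, 72 h) CFBE41o- cells. % activity was scaled to the on-plate 2 μM positive control minus DMSO; EC50 came from a variable-slope sigmoid fit.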

[1] = test compound without co-corrector, 18-24 hours at 33° C., read-out: EC50 (without co-corrector)
[2] = with co-corrector (2 μM of 3-[(2R,4R)-4-({[1-(2,2-difluoro-1,3-benzodioxol-5-yl)cyclopropyl]carbonyl}amino)-7-methoxy-3,4-dihydro-2H-chromen-2-yl]benzoic acid), read-out: EC50 (with co-corrector)

T1 sequence (P13569 with tags, fused parts or gaps DEL508-508): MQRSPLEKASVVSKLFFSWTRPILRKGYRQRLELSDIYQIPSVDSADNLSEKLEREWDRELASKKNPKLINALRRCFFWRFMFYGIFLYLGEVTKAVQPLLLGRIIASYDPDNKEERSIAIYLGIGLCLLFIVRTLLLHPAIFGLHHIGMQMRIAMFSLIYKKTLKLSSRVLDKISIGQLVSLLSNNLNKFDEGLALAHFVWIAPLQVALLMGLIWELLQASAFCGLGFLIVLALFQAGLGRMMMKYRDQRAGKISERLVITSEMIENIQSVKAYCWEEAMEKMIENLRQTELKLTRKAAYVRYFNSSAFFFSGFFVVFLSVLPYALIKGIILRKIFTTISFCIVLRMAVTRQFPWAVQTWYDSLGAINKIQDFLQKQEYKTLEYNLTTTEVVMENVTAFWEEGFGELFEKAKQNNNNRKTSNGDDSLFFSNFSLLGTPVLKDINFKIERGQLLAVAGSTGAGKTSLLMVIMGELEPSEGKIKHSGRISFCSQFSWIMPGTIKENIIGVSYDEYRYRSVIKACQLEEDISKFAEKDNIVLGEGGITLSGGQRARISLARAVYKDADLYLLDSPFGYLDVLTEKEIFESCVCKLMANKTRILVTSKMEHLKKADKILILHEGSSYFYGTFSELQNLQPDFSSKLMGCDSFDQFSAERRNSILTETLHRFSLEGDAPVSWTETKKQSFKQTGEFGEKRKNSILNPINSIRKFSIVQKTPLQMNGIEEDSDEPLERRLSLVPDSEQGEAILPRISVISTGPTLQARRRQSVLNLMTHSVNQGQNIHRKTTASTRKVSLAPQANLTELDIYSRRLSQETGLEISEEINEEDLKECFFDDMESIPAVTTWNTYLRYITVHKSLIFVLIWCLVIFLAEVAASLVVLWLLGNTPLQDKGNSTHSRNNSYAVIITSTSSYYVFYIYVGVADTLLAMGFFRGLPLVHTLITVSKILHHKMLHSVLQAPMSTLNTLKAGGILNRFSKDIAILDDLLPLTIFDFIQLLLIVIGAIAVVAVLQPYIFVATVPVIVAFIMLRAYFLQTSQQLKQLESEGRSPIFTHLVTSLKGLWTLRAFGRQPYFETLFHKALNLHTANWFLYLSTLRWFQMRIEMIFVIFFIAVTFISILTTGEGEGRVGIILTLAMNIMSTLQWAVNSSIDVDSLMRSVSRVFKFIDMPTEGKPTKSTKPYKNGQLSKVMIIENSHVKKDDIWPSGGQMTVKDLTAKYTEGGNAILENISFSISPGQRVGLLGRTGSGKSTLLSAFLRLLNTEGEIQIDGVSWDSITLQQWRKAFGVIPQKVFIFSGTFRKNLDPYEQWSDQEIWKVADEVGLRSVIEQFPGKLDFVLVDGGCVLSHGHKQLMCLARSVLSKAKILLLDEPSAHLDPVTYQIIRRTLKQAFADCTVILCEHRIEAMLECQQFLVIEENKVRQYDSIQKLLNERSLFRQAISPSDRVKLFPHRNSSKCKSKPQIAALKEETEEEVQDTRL

Compound | EC50 [1] | EC50 [2] | Maximum % activity (with co-corrector) | Maximum % activity (without co-corrector)
COc1ccccc1[C@H]1[C@@H](OCc2cc(C(F)(F)F)cnc2OC)[C@H](C(C)(C)C)[C@@H](C(=O)O)N1C(=O)[C@@H]1CCCCO1 [Example 240, (2S,3R,4S,5S)-3-tert-butyl-5-(2-methoxyphenyl)-4-{[2-methoxy-5-(trifluoromethyl)pyridin-3-yl]methoxy}-1-[(2S)-oxane-2-carbonyl]pyrrolidine-2-carboxylic acid] | 1000 to 10000 nM | < 1000 nM | +++ (≥350) | ++ (≥100 and <200)
COc1ccccc1[C@H]1[C@@H](OCc2cc(C(C)(C)C)cnc2OC)[C@H](C(C)(C)C)[C@@H](C(=O)O)N1C(=O)[C@@H]1CCCCO1 [Example 241, (2S,3R,4S,5S)-3-tert-butyl-4-[(5-tert-butyl-2-methoxypyridin-3-yl)methoxy]-5-(2-methoxyphenyl)-1-[(2S)-oxane-2-carbonyl]pyrrolidine-2-carboxylic acid] | 1000 to 10000 nM | < 1000 nM | +++ (≥350) | +++ (≥200)
COc1nc2c(C)cc(C)cc2cc1CO[C@H]1[C@H](C(C)(C)C)[C@@H](C(=O)O)N(C(=O)[C@@H]2CCCCO2)[C@H]1c1ccccc1C [Example 242, (2S,3R,4S,5S)-3-tert-butyl-4-[(2-methoxy-6,8-dimethylquinolin-3-yl)methoxy]-5-(2-methylphenyl)-1-[(2S)-oxane-2-carbonyl]pyrrolidine-2-carboxylic acid] | 1000 to 10000 nM | 1000 to 10000 nM | +++ (≥350) | ++ (≥100 and <200)
COc1nc2c(C)cccc2cc1CO[C@H]1[C@H](C(C)(C)C)[C@@H](C(=O)O)N(C(=O)[C@@H]2CCCCO2)[C@H]1c1ccccc1C [Example 244, (2S,3R,4S,5S)-3-tert-butyl-4-[(2-methoxy-8-methylquinolin-3-yl)methoxy]-5-(2-methylphenyl)-1-[(2S)-oxane-2-carbonyl]pyrrolidine-2-carboxylic acid] | 1000 to 10000 nM | 1000 to 10000 nM | +++ (≥350) | ++ (≥100 and <200)
COc1ccc(C2(C)CCC2)cc1CO[C@H]1[C@H](C(C)(C)C)[C@@H](C(=O)O)N(C(=O)OC(C)C)[C@H]1c1cccnc1OC(C)C [Example 246, (2S,3R,4S,5S)-3-tert-butyl-4-{[2-methoxy-5-(1-methylcyclobutyl)phenyl]methoxy}-1-{[(propan-2-yl)oxy]carbonyl}-5-{2-[(propan-2-yl)oxy]pyridin-3-yl}pyrrolidine-2-carboxylic acid] | 1000 to 10000 nM | < 1000 nM | +++ (≥350) | +++ (≥200)
COc1nc2c(C)ccc(C)c2cc1CO[C@H]1[C@H](C(C)(C)C)[C@@H](C(=O)O)N(C(=O)C2CCCCC2)[C@H]1c1cccnc1OC(C)C [Example 248, (2S,3R,4S,5S)-3-tert-butyl-1-(cyclohexanecarbonyl)-4-[(2-methoxy-5,8-dimethylquinolin-3-yl)methoxy]-5-{2-[(propan-2-yl)oxy]pyridin-3-yl}pyrrolidine-2-carboxylic acid] | 1000 to 10000 nM | 1000 to 10000 nM | +++ (≥350) | +++ (≥200)
COc1nc2cc(C)cc(C)c2cc1CO[C@H]1[C@H](C(C)(C)C)[C@@H](C(=O)O)N(C(=O)C2CCCCC2)[C@H]1c1cccnc1OC(C)C [Example 252, (2S,3R,4S,5S)-3-tert-butyl-1-(cyclohexanecarbonyl)-4-[(2-methoxy-5,7-dimethylquinolin-3-yl)methoxy]-5-{2-[(propan-2-yl)oxy]pyridin-3-yl}pyrrolidine-2-carboxylic acid] | 1000 to 10000 nM | 1000 to 10000 nM | +++ (≥350) | +++ (≥200)
CCc1ccccc1[C@H]1[C@@H](OCc2cc3ccccc3nc2OC)[C@H](C(C)(C)C)[C@@H](C(=O)O)N1C(=O)[C@@H]1CCCCO1 [Example 254, (2S,3R,4S,5S)-3-tert-butyl-5-(2-ethylphenyl)-4-[(2-methoxyquinolin-3-yl)methoxy]-1-[(2S)-oxane-2-carbonyl]pyrrolidine-2-carboxylic acid] | 1000 to 10000 nM | < 1000 nM | +++ (≥350) | +++ (≥200)

Continued, values first:

EC50 [1] | EC50 [2] | Maximum % activity (with co-corrector) | Maximum % activity (without co-corrector) | Compound
1000 to 10000 nM | < 1000 nM | +++ (≥350) | +++ (≥200) | COc1nc2cc(C)cc(C)c2cc1CO[C@H]1[C@H](C(C)(C)C)[C@@H](C(=O)O)N(C(=O)[C@@H]2CCCCO2)[C@H]1c1ccccc1C [Example 238, (2S,3R,4S,5S)-3-tert-butyl-4-[(2-methoxy-5,7-dimethylquinolin-3-yl)methoxy]-5-(2-methylphenyl)-1-[(2S)-oxane-2-carbonyl]pyrrolidine-2-carboxylic acid]
1000 to 10000 nM | < 1000 nM | +++ (≥350) | ++ (≥100 and <200) | COc1ccccc1[C@H]1[C@@H](OCc2cc(C3CCC3)cnc2OC)[C@H](C(C)(C)C)[C@@H](C(=O)O)N1C(=O)[C@@H]1CCCCO1 [Example 239, (2S,3R,4S,5S)-3-tert-butyl-4-[(5-cyclobutyl-2-methoxypyridin-3-yl)methoxy]-5-(2-methoxyphenyl)-1-[(2S)-oxane-2-carbonyl]pyrrolidine-2-carboxylic acid]
1000 to 10000 nM | < 1000 nM | +++ (≥350) | +++ (≥200) | COc1ncc(C2(C)CC2)cc1CO[C@H]1[C@H](C(C)(C)C)[C@@H](C(=O)O)N(C(=O)[C@@H]2CCCCO2)[C@H]1c1ccccc1C [Example 243, (2S,3R,4S,5S)-3-tert-butyl-4-{[2-methoxy-5-(1-methylcyclopropyl)pyridin-3-yl]methoxy}-5-(2-methylphenyl)-1-[(2S)-oxane-2-carbonyl]pyrrolidine-2-carboxylic acid]
1000 to 10000 nM | 1000 to 10000 nM | +++ (≥350) | +++ (≥200) | COc1ccc(C(C)(C)C)cc1CO[C@H]1[C@H](C(C)(C)C)[C@@H](C(=O)O)N(C(=O)OC(C)C)[C@H]1c1cccnc1OC(C)C [Example 245, (2S,3R,4S,5S)-3-tert-butyl-4-[(5-tert-butyl-2-methoxyphenyl)methoxy]-1-{[(propan-2-yl)oxy]carbonyl}-5-{2-[(propan-2-yl)oxy]pyridin-3-yl}pyrrolidine-2-carboxylic acid]
1000 to 10000 nM | 1000 to 10000 nM | +++ (≥350) | +++ (≥200) | COc1ccc(C(C)(C)C)cc1CO[C@H]1[C@H](C(C)(C)C)[C@@H](C(=O)O)N(C(=O)[C@@H]2CCCO2)[C@H]1c1ccccc1C [Example 247, (2S,3R,4S,5S)-3-tert-butyl-4-[(5-tert-butyl-2-methoxyphenyl)methoxy]-5-(2-methylphenyl)-1-[(2S)-oxolane-2-carbonyl]pyrrolidine-2-carboxylic acid]
1000 to 10000 nM | < 1000 nM | +++ (≥350) | +++ (≥200) | C=C(CO[C@H]1[C@H](C(C)(C)C)[C@@H](C(=O)O)N(C(=O)[C@@H]2CCCCO2)[C@H]1c1ccccc1C)c1cc(C(F)(F)F)ccc1OC [Example 249, (2S,3R,4S,5S)-3-tert-butyl-4-({2-[2-methoxy-5-(trifluoromethyl)phenyl]prop-2-en-1-yl}oxy)-5-(2-methylphenyl)-1-[(2S)-oxane-2-carbonyl]pyrrolidine-2-carboxylic acid]
< 1000 nM | < 1000 nM | +++ (≥350) | ++ (≥100 and <200) | COc1ncc(C(C)(C)C)cc1CO[C@H]1[C@H](C(C)(C)C)[C@@H](C(=O)O)N(C(=O)C2CCCCC2)[C@H]1c1cccnc1OC(C)C [Example 250, (2S,3R,4S,5S)-3-tert-butyl-4-[(5-tert-butyl-2-methoxypyridin-3-yl)methoxy]-1-(cyclohexanecarbonyl)-5-{2-[(propan-2-yl)oxy]pyridin-3-yl}pyrrolidine-2-carboxylic acid]
< 1000 nM | < 1000 nM | +++ (≥350) | +++ (≥200) | COc1ccc(C(C)(C)C)cc1CO[C@H]1[C@H](C(C)(C)C)[C@@H](C(=O)O)N(C(=O)C2CCCCC2)[C@H]1c1cccnc1OC(C)C [Example 251, (2S,3R,4S,5S)-3-tert-butyl-4-[(5-tert-butyl-2-methoxyphenyl)methoxy]-1-(cyclohexanecarbonyl)-5-{2-[(propan-2-yl)oxy]pyridin-3-yl}pyrrolidine-2-carboxylic acid]
1000 to 10000 nM | 1000 to 10000 nM | +++ (≥350) | +++ (≥200) | COc1nc2cc(C)cc(C)c2cc1CO[C@H]1[C@H](C(C)(C)C)[C@@H](C(=O)O)N(C(=O)OC(C)C)[C@H]1c1cccnc1OC(C)C [Example 253, (2S,3R,4S,5S)-3-tert-butyl-4-[(2-methoxy-5,7-dimethylquinolin-3-yl)methoxy]-1-{[(propan-2-yl)oxy]carbonyl}-5-{2-[(propan-2-yl)oxy]pyridin-3-yl}pyrrolidine-2-carboxylic acid]

Reference: US10399940B2, “Substituted pyrrolidines and methods of use” (AbbVie S.à.r.l., priority 2016, dated 2019)
